# Test system: Mycobacterium terrae (ATCC15755)
# Assay: Quantitative suspension test Mycobacterium terrae without load, room temperature
# Assay type: cell-based
# Settings: 0.1% added to 30% strength ethanol, exposure time 60 minutes
# Experimental: Various aqueous disinfectants were tested with respect to their activity towards Mycobacterium terrae, cell count 1 to 3×10^9 in a quantitative suspension test without load. The following reduction factors were measured, a reduction factor>5 corresponding to a sufficient Tb activity. For this various amounts of ethanol were added to aqueous active compound solutions and after exposure for 15, 30 and 60 minutes were tested. For testing the tuberculocidal activity, the quantitative suspension test Mycobacterium terrae (ATCC15755) was used in accordance with the Deutsche Gesellscaft für Hygiene and Mikrobiologie [German Society for Hygiene and Microbiology] of 30 Apr. 1997 (Hyg. Med. 22, 1997, issue 6, pages 278ff.).
compound,measurement,value
"CCCCC(CC)COCC(O)CO (stereo not shown) [SC 50, 1-(2-ethylhexyl) glycerol ether]",Tb activity (reduction factor>5 = sufficient),sufficiently Tb active

# Source: patent US8440725B2, “Synergistic preparations based on mixtures of glycerol ether with aromatic alcohol for controlling mycobacteria” (Air Liquide Sante (International), priority 2002, dated 2013)
